Test results reported in patent US10189807B2, “Tetrahydrothiophene-based GABA aminotransferase inactivators” (Northwestern University, priority 2015, dated 2019).
Structures can show the parent of a compound that is named as a salt. Where two headings read alike, the source gives them in different places. Blank lines part the entries; values can stand above or below the compound they belong to.

Tests used:
GABA-AT [1] = target: T1, GABA-AT (Sus scrofa (Pig), UniProt P80147); assay: Inhibition of GABA-AT, coupled assay with SSDH; format: biochemical
T1 sequence (P80147 29-500 limits assumed): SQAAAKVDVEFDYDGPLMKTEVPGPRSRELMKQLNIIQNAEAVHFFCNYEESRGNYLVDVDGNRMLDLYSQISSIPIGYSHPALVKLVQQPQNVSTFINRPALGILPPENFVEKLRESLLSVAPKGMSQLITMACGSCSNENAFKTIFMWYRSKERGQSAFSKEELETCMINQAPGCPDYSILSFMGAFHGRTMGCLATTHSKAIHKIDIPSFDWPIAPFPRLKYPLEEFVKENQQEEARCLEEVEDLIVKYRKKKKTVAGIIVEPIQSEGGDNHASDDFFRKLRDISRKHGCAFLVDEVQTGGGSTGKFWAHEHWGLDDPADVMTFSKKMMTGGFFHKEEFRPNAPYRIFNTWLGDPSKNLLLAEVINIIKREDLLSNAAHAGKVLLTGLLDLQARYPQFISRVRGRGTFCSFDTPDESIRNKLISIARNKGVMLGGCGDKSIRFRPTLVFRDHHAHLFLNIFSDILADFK
Description: (§1) GABA-AT was isolated and purified from pig brain by a published procedure.
Inhibition constants were determined by monitoring GABA-AT activity in the presence of 0-50 mM concentrations of synthesized analogues using a coupled assay with the enzyme succinic semialdehyde dehydrogenase (SSDH). The assay solution consisted of 10 mM GABA, 5 mM α ketoglutarate, 1 mM NADP^+, 5 mM β-mercaptoethanol, and excess SSDH in 50 mM potassium pyrophosphate buffer, pH 8.5. Enzyme activity was determined by observing the change in absorbance at 340 nm at 25° C. IC50 values were obtained using non-linear regression in GraphPad Prism5 software. Subsequent Ki values were determined using the Cheng-Prusoff relationship. (Yung-Chi, C.; Prusoff, W. H. Biochem. Pharmacol. 1973, 22, 3099-3108.)

GABA-AT [2] = target: T1, GABA-AT; assay: Time-dependent inhibition (inactivation) of GABA-AT, Kitz and Wilson replot; format: biochemical; settings: preliminary in vitro results
Description: as §1
GABA-AT (17.5 μL) was incubated in the presence of varying concentrations of each compound (70 μL final volume) at 25° C. in 50 mM potassium pyrophosphate buffer solution, pH 6.5, containing 5 mM α-ketoglutarate and 1 mM β-mercaptoethanol. […] The relative enzyme activity was determined by normalizing the rate of increasing absorbance at 340 nm to a control. A Kitz and Wilson replot was used to determine the kinetic constants KI and kinact.

infantile spasms = settings: multiple-hit rat model of infantile spasms; cited from earlier work
CYP2C9 = CYP2C9 (Homo sapiens (Human), UniProt P11712); assay: Inhibition of microsomal cytochromes P450: CYP2C9; format: in vitro ADME; settings: 10 μM, HLM, diclofenac substrate, 10 min at 37° C.
Sequence of CYP2C9 (P11712 whole entry): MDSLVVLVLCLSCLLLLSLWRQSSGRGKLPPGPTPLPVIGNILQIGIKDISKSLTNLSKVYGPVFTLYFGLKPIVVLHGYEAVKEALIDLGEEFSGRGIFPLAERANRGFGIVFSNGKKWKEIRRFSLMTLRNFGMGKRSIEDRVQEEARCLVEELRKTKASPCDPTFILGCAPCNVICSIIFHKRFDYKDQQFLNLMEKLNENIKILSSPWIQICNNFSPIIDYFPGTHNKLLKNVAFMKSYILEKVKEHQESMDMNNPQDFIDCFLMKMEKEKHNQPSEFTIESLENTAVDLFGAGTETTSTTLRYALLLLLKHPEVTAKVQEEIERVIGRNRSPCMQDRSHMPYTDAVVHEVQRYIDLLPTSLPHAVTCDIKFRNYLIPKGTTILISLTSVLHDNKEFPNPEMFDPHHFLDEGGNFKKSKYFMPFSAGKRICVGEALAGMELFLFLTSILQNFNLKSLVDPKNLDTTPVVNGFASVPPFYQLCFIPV
Description: (§2) The experiments were performed by Eurofins Panlabs (Redmond, Wash. 98052, USA). CYP1A inhibition (HLM, phenacetin substrate), CYP2B6 inhibition (HLM, bupropion substrate), CYP2C8 inhibition (HLM, paclitaxel substrate), CYP2C9 inhibition (HLM, diclofenac substrate), CYP2C19 inhibition (HLM, omeprazole substrate), CYP2D6 inhibition (HLM, dextromethorphan substrate), and CYP3A inhibition (HLM, midazolam and testosterone substrates) were tested. The test concentration was 10 μM. The incubation time was 10 min at 37° C. The detection method was by HPLC-MS/MS. The experiments were duplicated, and the % inhibition of the control values was averaged (FIG. 10).

CYP2C19 = CYP2C19 (Homo sapiens (Human), UniProt P33261); assay: Inhibition of microsomal cytochromes P450: CYP2C19; format: in vitro ADME; settings: 10 μM, HLM, omeprazole substrate, 10 min at 37° C.
Sequence of CYP2C19 (P33261 whole entry): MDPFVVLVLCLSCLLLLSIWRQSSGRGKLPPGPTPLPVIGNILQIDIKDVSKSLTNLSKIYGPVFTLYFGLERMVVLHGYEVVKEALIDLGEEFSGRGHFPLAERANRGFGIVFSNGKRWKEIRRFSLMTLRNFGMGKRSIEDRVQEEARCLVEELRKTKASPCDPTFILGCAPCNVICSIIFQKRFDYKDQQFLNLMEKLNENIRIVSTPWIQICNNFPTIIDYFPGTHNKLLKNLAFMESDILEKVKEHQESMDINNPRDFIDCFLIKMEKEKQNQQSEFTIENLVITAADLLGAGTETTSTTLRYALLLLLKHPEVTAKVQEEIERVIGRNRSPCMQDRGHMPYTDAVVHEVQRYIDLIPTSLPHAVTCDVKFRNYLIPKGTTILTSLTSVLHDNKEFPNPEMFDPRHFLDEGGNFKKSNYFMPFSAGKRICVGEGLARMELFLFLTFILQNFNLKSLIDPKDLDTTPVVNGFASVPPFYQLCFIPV
Description: as §2

CYP3A = assay: Inhibition of microsomal cytochromes P450: CYP3A; format: in vitro ADME, human; settings: 10 μM, HLM, midazolam and testosterone substrates, 10 min at 37° C.
Description: as §2

CYP2D6 = CYP2D6 (Homo sapiens (Human), UniProt P10635); assay: Inhibition of microsomal cytochromes P450: CYP2D6; format: in vitro ADME; settings: 10 μM, HLM, dextromethorphan substrate, 10 min at 37° C.
Sequence of CYP2D6 (P10635 whole entry): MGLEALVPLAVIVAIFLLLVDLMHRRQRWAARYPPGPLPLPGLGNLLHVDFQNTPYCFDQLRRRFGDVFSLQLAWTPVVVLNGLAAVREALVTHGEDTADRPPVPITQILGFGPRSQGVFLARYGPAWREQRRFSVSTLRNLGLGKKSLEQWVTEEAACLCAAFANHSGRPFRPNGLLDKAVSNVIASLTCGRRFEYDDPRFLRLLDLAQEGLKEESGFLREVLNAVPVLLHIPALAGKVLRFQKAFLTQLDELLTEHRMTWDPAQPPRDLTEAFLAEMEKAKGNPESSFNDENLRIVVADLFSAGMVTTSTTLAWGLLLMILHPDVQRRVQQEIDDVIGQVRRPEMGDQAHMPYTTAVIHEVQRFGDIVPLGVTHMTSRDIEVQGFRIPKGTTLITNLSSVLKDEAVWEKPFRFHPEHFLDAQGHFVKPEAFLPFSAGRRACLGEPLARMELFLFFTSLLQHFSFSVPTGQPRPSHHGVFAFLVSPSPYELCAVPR
Description: as §2

Plasma protein binding = format: in vitro ADME
CYP1A = CYP1A (Homo sapiens (Human), UniProt P05177); assay: Inhibition of microsomal cytochromes P450: CYP1A; format: in vitro ADME; settings: 10 μM, HLM, phenacetin substrate, 10 min at 37° C.
Sequence of CYP1A (P05177 whole entry): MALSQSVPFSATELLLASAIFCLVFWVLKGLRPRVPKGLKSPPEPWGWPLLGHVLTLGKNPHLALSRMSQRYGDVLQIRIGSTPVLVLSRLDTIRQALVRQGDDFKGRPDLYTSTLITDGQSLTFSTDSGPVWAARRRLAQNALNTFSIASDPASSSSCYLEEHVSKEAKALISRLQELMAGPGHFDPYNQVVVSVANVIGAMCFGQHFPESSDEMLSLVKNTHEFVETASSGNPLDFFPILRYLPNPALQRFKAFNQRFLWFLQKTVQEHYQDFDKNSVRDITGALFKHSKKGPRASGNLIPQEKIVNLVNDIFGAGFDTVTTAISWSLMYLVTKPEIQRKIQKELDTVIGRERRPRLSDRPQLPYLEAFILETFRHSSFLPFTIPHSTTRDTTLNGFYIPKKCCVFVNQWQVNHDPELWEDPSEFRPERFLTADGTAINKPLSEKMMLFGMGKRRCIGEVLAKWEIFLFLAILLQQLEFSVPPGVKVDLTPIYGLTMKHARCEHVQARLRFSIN
Description: as §2

CYP2C8 = CYP2C8 (Homo sapiens (Human), UniProt P10632); assay: Inhibition of microsomal cytochromes P450: CYP2C8; format: in vitro ADME; settings: 10 μM, HLM, paclitaxel substrate, 10 min at 37° C.
Sequence of CYP2C8 (P10632 whole entry): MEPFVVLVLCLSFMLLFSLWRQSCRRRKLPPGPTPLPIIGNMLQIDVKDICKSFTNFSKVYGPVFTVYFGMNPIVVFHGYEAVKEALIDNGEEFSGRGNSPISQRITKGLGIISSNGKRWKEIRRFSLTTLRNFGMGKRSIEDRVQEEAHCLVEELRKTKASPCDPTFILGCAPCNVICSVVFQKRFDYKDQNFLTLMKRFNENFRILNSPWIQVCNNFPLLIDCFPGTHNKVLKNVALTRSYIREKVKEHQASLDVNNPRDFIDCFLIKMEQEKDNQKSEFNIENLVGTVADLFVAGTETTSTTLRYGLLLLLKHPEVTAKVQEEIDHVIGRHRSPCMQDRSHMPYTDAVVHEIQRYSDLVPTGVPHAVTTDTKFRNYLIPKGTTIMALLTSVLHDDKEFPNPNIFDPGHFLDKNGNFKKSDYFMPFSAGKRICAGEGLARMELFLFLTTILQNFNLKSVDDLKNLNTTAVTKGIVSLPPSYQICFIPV
Description: as §2

hERG channel = hERG channel (Homo sapiens (Human), UniProt Q12809); assay: Inhibition of the hERG channel, automated whole-cell patch clamp; format: cell-based; settings: hERG CHO-K1 cell line; 0.1, 1 and 10 μM; 5 min at room temperature
Sequence of hERG channel (Q12809 whole entry): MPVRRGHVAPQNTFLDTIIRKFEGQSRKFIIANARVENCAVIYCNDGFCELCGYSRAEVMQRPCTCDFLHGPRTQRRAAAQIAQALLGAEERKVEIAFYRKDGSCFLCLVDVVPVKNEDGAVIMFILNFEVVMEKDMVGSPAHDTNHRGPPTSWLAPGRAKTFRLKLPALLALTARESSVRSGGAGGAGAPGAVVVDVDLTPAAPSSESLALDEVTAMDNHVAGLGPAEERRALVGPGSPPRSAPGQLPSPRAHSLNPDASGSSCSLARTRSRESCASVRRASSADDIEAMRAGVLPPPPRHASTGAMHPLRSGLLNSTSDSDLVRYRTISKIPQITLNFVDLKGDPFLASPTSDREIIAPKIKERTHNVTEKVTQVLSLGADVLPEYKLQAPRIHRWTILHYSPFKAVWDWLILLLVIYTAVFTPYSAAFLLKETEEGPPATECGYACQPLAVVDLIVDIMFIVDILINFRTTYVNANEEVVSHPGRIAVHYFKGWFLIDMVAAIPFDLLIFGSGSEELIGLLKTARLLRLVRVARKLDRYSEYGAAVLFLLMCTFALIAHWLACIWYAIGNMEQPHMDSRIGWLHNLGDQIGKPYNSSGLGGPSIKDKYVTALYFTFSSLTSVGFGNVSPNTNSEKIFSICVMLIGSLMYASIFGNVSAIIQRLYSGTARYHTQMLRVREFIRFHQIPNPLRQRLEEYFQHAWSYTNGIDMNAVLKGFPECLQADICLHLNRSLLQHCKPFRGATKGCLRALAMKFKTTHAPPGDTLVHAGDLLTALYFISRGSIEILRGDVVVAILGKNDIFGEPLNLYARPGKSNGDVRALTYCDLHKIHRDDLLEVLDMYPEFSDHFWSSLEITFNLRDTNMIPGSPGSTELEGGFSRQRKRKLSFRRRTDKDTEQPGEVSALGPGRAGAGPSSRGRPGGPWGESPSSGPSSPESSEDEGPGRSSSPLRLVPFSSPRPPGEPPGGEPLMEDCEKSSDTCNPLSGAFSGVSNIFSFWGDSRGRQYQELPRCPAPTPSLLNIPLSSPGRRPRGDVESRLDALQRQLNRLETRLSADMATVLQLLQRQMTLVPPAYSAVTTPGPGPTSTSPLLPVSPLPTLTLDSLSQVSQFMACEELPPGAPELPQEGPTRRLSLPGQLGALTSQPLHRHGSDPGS
Description: The experiments were performed by Eurofins Panlabs (Redmond, Wash. 98052, USA). hERG CHO-K1 cell line was used. The test concentrations were 0.1 μM, 1 μM, and 10 μM. The incubation time was 5 min at room temperature, cumulatively. The detection method used an automated whole-cell patch clamp. The experiments were duplicated, and the % inhibition of the tail current was averaged (FIG. 9).

[3] = Metabolic stability in human liver microsomes; format: in vitro ADME; settings: 0.1 μM, over 60 minutes at 37° C., LC-MS/MS
Description: The experiments were performed by Eurofins Panlabs (Redmond, Wash. 98052, USA). The test concentration of 17 was 0.1 μM. […] The detection method was by LC-MS/MS. Imipramine, propranolol, terfenadine, and verapamil were run in similar condition as controls.

CYP2B6 = CYP2B6 (Homo sapiens (Human), UniProt P20813); assay: Inhibition of microsomal cytochromes P450: CYP2B6; format: in vitro ADME; settings: 10 μM, HLM, bupropion substrate, 10 min at 37° C.
Sequence of CYP2B6 (P20813 whole entry): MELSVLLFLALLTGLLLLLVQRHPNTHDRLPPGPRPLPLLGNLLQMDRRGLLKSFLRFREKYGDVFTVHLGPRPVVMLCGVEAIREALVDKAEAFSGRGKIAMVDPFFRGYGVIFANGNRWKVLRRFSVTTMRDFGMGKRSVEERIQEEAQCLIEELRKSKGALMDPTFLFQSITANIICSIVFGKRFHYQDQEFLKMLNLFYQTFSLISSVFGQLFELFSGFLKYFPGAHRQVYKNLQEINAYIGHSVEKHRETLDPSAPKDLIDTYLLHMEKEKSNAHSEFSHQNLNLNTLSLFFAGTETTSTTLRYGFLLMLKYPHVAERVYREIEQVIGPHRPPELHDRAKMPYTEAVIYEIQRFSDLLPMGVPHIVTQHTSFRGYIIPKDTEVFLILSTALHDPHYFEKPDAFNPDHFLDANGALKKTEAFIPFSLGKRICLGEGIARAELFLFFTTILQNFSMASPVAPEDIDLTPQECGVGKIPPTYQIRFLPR
Description: as §2

GABA-AT [4] = settings: prior art; cited from earlier work
[5] = system: aspartate aminotransferase; settings: off-target enzyme; cited from earlier work
[6] = competitive inhibition, read-out: Ki (competitive inhibitor of GABA-AT)

Compound: Cl.N[C@@H]1CS[C@@H](C(=O)O)C1 [Compound 18, (2R,4S)-4-Aminotetrahydrothiophene-2-carboxylic acid hydrochloride]
Inactivation of GABA-AT (in words) (GABA-AT [2]): potent inactivators

Compound: C=CC(N)CCC(=O)O (stereo not drawn) [vigabatrin]
Duration of effective spasms suppression (infantile spasms): 1 days

Compound: Cl.N[C@@H]1CS[C@H](C(=O)O)C1 [Compound 17, (2S,4S)-4-Aminotetrahydrothiophene-2-carboxylic acid hydrochloride]
Inactivation of GABA-AT (in words) (GABA-AT [2]): potent inactivators | CYP2C9 inhibition (CYP2C9): did not inhibit or induce | CYP2C19 inhibition (CYP2C19): did not inhibit or induce | CYP3A inhibition (CYP3A): did not inhibit or induce | CYP2D6 inhibition (CYP2D6): did not inhibit or induce | fraction unbound (Plasma protein binding): 0.74 | CYP1A inhibition (CYP1A): did not inhibit or induce | CYP2C8 inhibition (CYP2C8): did not inhibit or induce | Inhibition of the hERG channel (hERG channel): did not inhibit | metabolized in HLM [3]: less than 20% | CYP2B6 inhibition (CYP2B6): did not inhibit or induce

Compound: N[C@H]1C=C(C(=O)O)SC1 [(S)-4-Amino-4,5-dihydro-2-thiophenecarboxylic acid]
Potency/inactivation of GABA-AT (in words) (GABA-AT [4]): known inactivator | Inactivation or inhibition of aspartate aminotransferase [5]: inactivator

Compound: N[C@H]1CC(C(=O)O)S(=O)(=O)C1 (mixture of isomers) [Compound 19, (4S)-4-Aminotetrahydrothiophene-2-carboxylic acid 1,1-dioxide hydrochloride]
Ki (GABA-AT [1]; read-out: Ki (reversible inhibition)): 3200 ± 700 µM

Results, then the compound that gave them:

Ki (GABA-AT [1]; [6]): 1300 µM
Compound: N[C@@H]1CN[C@H](C(=O)O)C1 [Compound 41, (2S,4S)-4-aminopyrrolidine-2-carboxylic acid]

Inactivation of GABA-AT (in words) (GABA-AT [2]): not an inactivator | Ki (GABA-AT [1]; [6]): 870 µM
Compound: N[C@@H]1CC[C@H](C(=O)O)C1 [Compound 39, (1S,3R)-3-aminocyclopentane-1-carboxylic acid]

Ki (GABA-AT [1]; pH 8.5, 25° C., from IC50 by Cheng-Prusoff, read-out: Ki (reversible inhibition)): 7500 ± 700 µM
Compound: N[C@@H]1CC(C(=O)O)S(=O)(=O)C1 (stereo partly drawn) [Compound 22]

Ki (GABA-AT [1]; [6]): 430 µM
Compound: mixture of (2S,4S)-4-aminotetrahydrofuran-2-carboxylic acid (40) and (2R,4R)-4-aminotetrahydrofuran-2-carboxylic acid (51) [mixture of enantiomers 40 and 51]
